Assay results as given in US20120101100A1 (priority 2008, published 2012).

Molecular target: S. aureus GyrB ATPase (Staphylococcus aureus, UniProt P0A0K8)
Assay: S. aureus (SAU) GyrB ATPase inhibition, malachite green phosphate detection (E. coli GyrA + S. aureus GyrB)
Format: biochemical
Conditions: compound concentration of 1.0 μM unless otherwise noted; average value where assay was carried out more than once; read-out: S. aureus (SAU) GyrB ATPase % Inhibition
Outline: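 E. coli GyrA and S. aureus GyrB (1.25 nM each) with 500 μM ATP and 5 μg/ml sheared salmon sperm DNA in 50 mM Hepes pH 7.5, 8.0 mM MgCl2. Released phosphate detected with ammonium molybdate/malachite green at 650 nm; 2% DMSO as 0% and 2 μM novobiocin as 100% inhibition; IC50 from 10 concentrations.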

Chain of S. aureus GyrB ATPase (P0A0K8 whole entry): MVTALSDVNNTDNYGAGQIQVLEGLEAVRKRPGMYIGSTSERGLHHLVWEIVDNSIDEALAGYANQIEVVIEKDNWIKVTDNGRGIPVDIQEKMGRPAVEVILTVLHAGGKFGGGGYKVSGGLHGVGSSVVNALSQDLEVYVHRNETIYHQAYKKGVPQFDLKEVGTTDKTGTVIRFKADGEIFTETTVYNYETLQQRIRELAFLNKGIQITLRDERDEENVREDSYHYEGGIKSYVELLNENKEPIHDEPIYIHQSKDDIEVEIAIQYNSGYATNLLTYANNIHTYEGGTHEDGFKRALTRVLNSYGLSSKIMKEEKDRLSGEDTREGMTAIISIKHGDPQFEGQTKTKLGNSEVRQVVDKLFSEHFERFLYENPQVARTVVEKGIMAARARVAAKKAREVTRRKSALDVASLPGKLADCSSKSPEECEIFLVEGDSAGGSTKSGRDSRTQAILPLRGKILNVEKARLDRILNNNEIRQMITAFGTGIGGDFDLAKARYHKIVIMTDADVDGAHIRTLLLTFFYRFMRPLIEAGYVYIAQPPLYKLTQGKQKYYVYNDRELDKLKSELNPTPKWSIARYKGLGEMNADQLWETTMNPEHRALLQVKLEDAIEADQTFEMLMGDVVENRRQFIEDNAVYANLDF
Chain of S. aureus GyrB ATPase (P0AES4 whole entry, further chain): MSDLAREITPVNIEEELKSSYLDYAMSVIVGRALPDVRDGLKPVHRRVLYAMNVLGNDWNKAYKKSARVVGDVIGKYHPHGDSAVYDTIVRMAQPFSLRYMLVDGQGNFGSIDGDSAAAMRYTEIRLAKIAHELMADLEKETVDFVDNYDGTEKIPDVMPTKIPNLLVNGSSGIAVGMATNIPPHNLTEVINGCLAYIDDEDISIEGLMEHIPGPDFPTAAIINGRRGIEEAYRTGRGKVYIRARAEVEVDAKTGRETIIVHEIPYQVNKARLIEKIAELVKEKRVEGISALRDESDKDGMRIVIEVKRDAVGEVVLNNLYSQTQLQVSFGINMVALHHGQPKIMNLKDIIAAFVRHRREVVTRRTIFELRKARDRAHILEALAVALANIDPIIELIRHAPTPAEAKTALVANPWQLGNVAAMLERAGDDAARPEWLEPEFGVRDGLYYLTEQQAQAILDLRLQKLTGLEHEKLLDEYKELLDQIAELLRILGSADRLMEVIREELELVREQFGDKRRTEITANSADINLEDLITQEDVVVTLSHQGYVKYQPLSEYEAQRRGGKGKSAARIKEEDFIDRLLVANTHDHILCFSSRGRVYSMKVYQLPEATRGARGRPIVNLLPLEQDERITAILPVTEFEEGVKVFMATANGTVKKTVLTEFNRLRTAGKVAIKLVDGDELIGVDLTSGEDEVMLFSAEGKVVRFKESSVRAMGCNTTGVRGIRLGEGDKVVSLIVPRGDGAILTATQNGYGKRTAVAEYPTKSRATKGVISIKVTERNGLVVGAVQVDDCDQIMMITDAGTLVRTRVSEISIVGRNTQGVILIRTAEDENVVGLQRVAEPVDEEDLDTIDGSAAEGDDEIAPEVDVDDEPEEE

Row | Structure (SMILES) | inhibition at 1 µM [%]
1 | CCNC(=O)Nc1cc(-c2nc(C(F)(F)F)cs2)c(-c2cc(-c3nnc(C)o3)c[n+]([O-])c2)cn1 [Example 255, 6′-(3-ethylureido)-5-(5-methyl-1,3,4-oxadiazol-2-yl)-4′-(4-(trifluoromethyl)thiazol-2-yl)-3,3′-bipyridine 1-oxide] | 98
2 | CCNC(=O)Nc1cc(-c2nc(C(F)(F)F)cs2)c(-c2cncc(-c3nnc(C(F)F)[nH]3)c2)cn1 [Example 256, 1-(5′-(5-(difluoromethyl)-4H-1,2,4-triazol-3-yl)-4-(4-(trifluoromethyl)thiazol-2-yl)-3,3′-bipyridin-6-yl)-3-ethylurea] | 103
3 | CCNC(=O)Nc1cc(-c2nc(C(F)(F)F)cs2)c(-c2cncc(-c3nnc(C(F)(F)F)[nH]3)c2)cn1 [Example 257, 1-ethyl-3-(5′-(5-(trifluoromethyl)-4H-1,2,4-triazol-3-yl)-4-(4-(trifluoromethyl)thiazol-2-yl)-3,3′-bipyridin-6-yl)urea] | 102
4 | CCNC(=O)Nc1cc(-c2nc(C(F)(F)F)cs2)c(-c2cnc(N)c(-c3nnc(C)o3)c2)cn1 [Example 258, 1-(6′-amino-5′-(5-methyl-1,3,4-oxadiazol-2-yl)-4-(4-(trifluoromethyl)thiazol-2-yl)-3,3′-bipyridin-6-yl)-3-ethylurea] | 96
5 | CCNC(=O)Nc1cc(-c2nc(C(F)(F)F)cs2)c(-c2cc[n+]([O-])c(-c3nnc(C)o3)c2)cn1 [Example 259, 6-(3-ethylureido)-2′-(5-methyl-1,3,4-oxadiazol-2-yl)-4-(4-(trifluoromethyl)thiazol-2-yl)-3,4′-bipyridine 1′-oxide] | 95
6 | CCNC(=O)Nc1cc(-c2nc(C(F)(F)F)cs2)c(-c2cc(-c3n[nH]c(=O)o3)cnc2N)cn1 [Example 260, 1-(2′-amino-5′-(5-oxo-4,5-dihydro-1,3,4-oxadiazol-2-yl)-4-(4-(trifluoromethyl)thiazol-2-yl)-3,3′-bipyridin-6-yl)-3-ethylurea] | 96
7 | CCNC(=O)Nc1cc(-c2nc(C(F)(F)F)cs2)c(-c2c[nH]c(=O)c(-c3nnc(C)o3)c2)cn1 [Example 261, 1-ethyl-3-(5-(5-(5-methyl-1,3,4-oxadiazol-2-yl)-6-oxo-1,6-dihydropyridin-3-yl)-4-(4-(trifluoromethyl)thiazol-2-yl)pyridin-2-yl)urea] | 96
8 | CCNC(=O)Nc1cc(-c2nc(-c3cccc(OC)n3)cs2)c(-c2cncc(-c3n[nH]c(=O)o3)n2)cn1 [Example 262, 1-ethyl-3-(4-(4-(6-methoxypyridin-2-yl)thiazol-2-yl)-5-(6-(5-oxo-4,5-dihydro-1,3,4-oxadiazol-2-yl)pyrazin-2-yl)pyridin-2-yl)urea] | 97
9 | CCNC(=O)Nc1cc(-c2nc(C(F)(F)F)cs2)c(-c2cncc(-c3nnc(C(C)(C)O)o3)c2)cn1 [Example 263, 1-ethyl-3-(5′-(5-(2-hydroxypropan-2-yl)-1,3,4-oxadiazol-2-yl)-4-(4-(trifluoromethyl)thiazol-2-yl)-3,3′-bipyridin-6-yl)urea] | 100
10 | CCNC(=O)Nc1cc(-c2nc(C(F)(F)F)cs2)c(-c2cncc(-c3nnc(C(C)(C)OC(C)=O)o3)c2)cn1 [Example 264, 2-(5-(6′-(3-ethylureido)-4′-(4-(trifluoromethyl)thiazol-2-yl)-3,3′-bipyridin-5-yl)-1,3,4-oxadiazol-2-yl)propan-2-yl acetate] | 98
11 | CCNC(=O)Nc1cc(-c2nc(C(F)(F)F)cs2)c(-c2cncc(-c3nnc(CC(C)=O)o3)c2)cn1 [Example 265, 1-ethyl-3-(5′-(5-(2-oxopropyl)-1,3,4-oxadiazol-2-yl)-4-(4-(trifluoromethyl)thiazol-2-yl)-3,3′-bipyridin-6-yl)urea] | 101
12 | CCNC(=O)Nc1cc(-c2nc(C(F)(F)F)cs2)c(-c2cncc(-c3nnc(COCc4ccccc4)o3)c2)cn1 [Example 266, 1-(5′-(5-(benzyloxymethyl)-1,3,4-oxadiazol-2-yl)-4-(4-(trifluoromethyl)thiazol-2-yl)-3,3′-bipyridin-6-yl)-3-ethylurea] | 98
13 | CCNC(=O)Nc1cc(-c2nc(C(F)(F)F)cs2)c(-c2cncc(-c3nnc(N(CC)CC)o3)c2)cn1 [Example 267, 1-(5′-(5-(diethylamino)-1,3,4-oxadiazol-2-yl)-4-(4-(trifluoromethyl)thiazol-2-yl)-3,3′-bipyridin-6-yl)-3-ethylurea] | 98
14 | CCNC(=O)Nc1cc(-c2nc(C(F)(F)F)cs2)c(-c2cncc(-c3nnc(CN(C)C)o3)c2)cn1 [Example 268, 1-(5′-(5-((dimethylamino)methyl)-1,3,4-oxadiazol-2-yl)-4-(4-(trifluoromethyl)thiazol-2-yl)-3,3′-bipyridin-6-yl)-3-ethylurea] | 98
15 | CCNC(=O)Nc1cc(-c2nc(C(F)(F)F)cs2)c(-c2cncc(-c3nnc(COC)o3)c2)cn1 [Example 270, 1-ethyl-3-(5′-(5-(methoxymethyl)-1,3,4-oxadiazol-2-yl)-4-(4-(trifluoromethyl)thiazol-2-yl)-3,3′-bipyridin-6-yl)urea] | 97
16 | CCNC(=O)Nc1cc(-c2nc(C(F)(F)F)cs2)c(-c2cncc(-c3nnc(OCC)o3)c2)cn1 [Example 271, 1-(5′-(5-ethoxy-1,3,4-oxadiazol-2-yl)-4-(4-(trifluoromethyl)thiazol-2-yl)-3,3′-bipyridin-6-yl)-3-ethylurea] | 100
17 | CCNC(=O)Nc1cc(-c2nc(C(F)(F)F)cs2)c(-c2cncc(-c3nnco3)c2)cn1 [Example 272, 1-(5′-(1,3,4-oxadiazol-2-yl)-4-(4-(trifluoromethyl)thiazol-2-yl)-3,3′-bipyridin-6-yl)-3-ethylurea] | 90
18 | CCNC(=O)Nc1cc(-c2nc(C(F)(F)F)cs2)c(-c2cncc(-c3nnc(C4(O)CC4)o3)c2)cn1 [Example 273, 1-ethyl-3-(5′-(5-(1-hydroxycyclopropyl)-1,3,4-oxadiazol-2-yl)-4-(4-(trifluoromethyl)thiazol-2-yl)-3,3′-bipyridin-6-yl)urea] | 98
19 | CCNC(=O)Nc1cc(-c2nc(C(F)(F)F)cs2)c(-c2cncc(-c3nnc(C(=O)N(C)C)o3)c2)cn1 [Example 274, 5-(6′-(3-ethylureido)-4′-(4-(trifluoromethyl)thiazol-2-yl)-3,3′-bipyridin-5-yl)-N,N-dimethyl-1,3,4-oxadiazole-2-carboxamide] | 99
20 | CCNC(=O)Nc1cc(-c2nc(C(F)(F)F)cs2)c(-c2cncc(-c3nnc(C(C)O)o3)c2)cn1 (stereo not shown) [Example 275, 1-ethyl-3-(5′-(5-(1-hydroxyethyl)-1,3,4-oxadiazol-2-yl)-4-(4-(trifluoromethyl)thiazol-2-yl)-3,3′-bipyridin-6-yl)urea] | 98
21 | CCNC(=O)Nc1cc(-c2nc(C(F)(F)F)cs2)c(-c2cncc(-c3nnc(COC(C)=O)o3)c2)cn1 [Example 276, (5-(6′-(3-ethylureido)-4′-(4-(trifluoromethyl)thiazol-2-yl)-3,3′-bipyridin-5-yl)-1,3,4-oxadiazol-2-yl)methyl acetate] | 98
22 | CCNC(=O)Nc1cc(-c2nc(C(F)(F)F)cs2)c(-c2cncc(-c3nnc(COCCOC)o3)c2)cn1 [Example 278, 1-ethyl-3-(5′-(5-((2-methoxyethoxy)methyl)-1,3,4-oxadiazol-2-yl)-4-(4-(trifluoromethyl)thiazol-2-yl)-3,3′-bipyridin-6-yl)urea] | 68
